Laboratory results published in patent US20210038730A1, “PEPTIDE NANOFIBERS” (UNIVERSITY OF PORTSMOUTH HIGHER EDUCATION CORPORATION, priority 2018, published 2021).
Several values for one entry are separate records, joined by “and”; a condition that tells them apart may be missing. Equal entries are not always repeated. Where two headings read alike, the source gives them in different places.

Tests used:
[1] = target: T1, GnRH-R expressed on glioblastoma cells (Homo sapiens, UniProt P30968); assay: Receptor binding by single molecule force spectroscopy; settings: for koff: read-out: Dissociation Rate (Koff)
T1 construct: GnRH peptides to the GnRH-R expressed on glioblastoma cells; endogenous in cells; host or cells: U-87 MG, UP-007, UP-029, SEBTA-023 glioblastoma cells (living)
T1 sequence (P30968 1-328): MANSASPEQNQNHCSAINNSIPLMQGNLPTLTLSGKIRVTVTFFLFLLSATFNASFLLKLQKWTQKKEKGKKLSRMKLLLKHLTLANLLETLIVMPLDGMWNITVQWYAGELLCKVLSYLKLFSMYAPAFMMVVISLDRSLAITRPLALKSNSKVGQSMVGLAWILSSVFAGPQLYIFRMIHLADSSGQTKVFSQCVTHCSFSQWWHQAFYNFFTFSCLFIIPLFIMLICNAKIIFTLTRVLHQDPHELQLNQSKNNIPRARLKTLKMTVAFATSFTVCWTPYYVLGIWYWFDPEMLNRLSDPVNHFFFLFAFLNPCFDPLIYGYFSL
Method: The binding of the GnRH analogues to GnRH-R was assessed using single molecule force spectroscopy (SMFS) and Topography and Recognition (TREC) imaging based on AFM. AFM tips were functionalised with Glu-GnRH, goserelin acetate and […] as a monomer and nanofibers using a previously described method ^9, 10. Silicon nitride (6-20 pN/nm spring constant, Bruker, Mass., USA) and magnetically coated […] tips (Keysight, Calif., USA) were used for SMFS and TREC studies, respectively. […] Subsequently, acetal groups were converted into aldehyde groups by immersing the tips in a 1% (w/v) citric acid solution for 10 minutes. […] Following an incubation of 2 hours, the free aldehyde groups were inactivated by ethanolamine for 10 minutes. AFM tips were washed with PBS three times and stored at 4° C. […] Loading rates were calculated by multiplying the pulling velocity (v) with the effective spring constant (keff). Spring constants were determined by the thermal-noise method. The force-distance curves were acquired using PicoView 1.12 (Agilent Technologies, Inc., California, USA) and analysed in Matlab 8.1 software (MathWorks, Massachusetts, USA). […] Amplitude-distance curves were collected on a glass coverslip to adjust the free oscillation amplitude, and to determine the optimal amplitude reduction value for driving the feedback loop during the imaging. Free amplitude of cantilever oscillation was 30 nm and the excitation frequency was set to 9 kHz.

[2] = Enzymatic stability in rat plasma; settings: 50% (v/v) rat plasma
Method: Fresh blood, obtained from adult male Wistar rats, was collected in sterile the 170 I.U. lithium heparin-coated tubes (Vacutainer, BD Bioscience, UK). Blood was centrifuged immediately at 2,000 g for 15 minutes (4° C.) and supernatant was collected and diluted to 50% (v/v) with PBS. Livers and brains were obtained from adult male Wistar rats, and the tissues were blotted to dryness, weighed, sliced into pieces, and homogenised with ice-cold PBS (in 2 mL of buffer g^−1 of tissue) using the glass homogeniser. Then, tissue homogenates were centrifuged at 4,300 g for 1 hour (4° C.) and the supernatants collected. Glioblastoma cell homogenates were prepared using U-87 MG cells. Cells were cultured in Eagle's Minimum Essential Medium (EMEM) supplemented with 10% (v/v) heat-inactivated fetal bovine serum (FBS), 1% (v/v) of non-essential amino acids (NEAA) and 1 mM of sodium pyruvate in T75 flasks with a surface area of 75 cm^2 and maintained in a humidified atmosphere of 5% CO2 at 37° C. Breast cancer cell homogenates were prepared using MDA-MB-231 cells. Cells were cultured in Dulbecco's Modified Eagle Medium (DMEM) supplemented with high levels of glucose (4.5 g/L), 10% (v/v) heat-inactivated fetal bovine serum (FBS), 1% (v/v) of non-essential amino acids (NEAA) and penicillin and streptomycin (500 units/mL) in T75 flasks with a surface area of 75 cm^2 and maintained in a humidified atmosphere of 5% CO2 at 37° C. Media was changed for both cell lines every 3 to 4 days. After reaching confluence, cells were washed twice with Hank's Balanced Salt Solution (HBSS) and incubated with ˜2 mL of TrypLE Enzyme at 37° C. for ˜3 minutes. Then, complete media were added, and cells were centrifuged at 1,000 rpm for 5 minutes in C-28A centrifuge (Boeco, Germany). U-87 MG or MDA-MB-231 cells (˜10×10^6 cells mL^−1) were re-suspended in ice-cold PBS, and homogenised with a 2×5 second pulses with the probe sonicator (UP200S Ultrasonic processor, SciMed, 200 watts, amplitude of 60%). Cell debris were removed by centrifugation at 2,000 rpm for 5 minutes (Jouan B4i, Thermo Scientific, Paisley, UK). Supernatant was collected and stored at −80° C. Total protein concentration in the homogenates was determined using the Bradford assay with bovine serum albumin as a standard. Diluted plasma, tissue or cell homogenates were pre-warmed during ˜30 minutes at 37° C. Peptide stock solutions (Glu-GnRH, goserelin acetate and TPGnRH, 5 mM in PBS, 500 μL) were prepared and added to the homogenate solutions (120 μL). […] Samples were vortexed for 15 minutes, centrifuged for 15 minutes at 12,000 rpm, and the supernatants were collected and analysed by RP-HPLC.

[3] = Enzymatic stability in U-87 MG cell homogenates; settings: analyte in brackets of label
Method: Fresh blood, obtained from adult male Wistar rats, was collected in sterile the 170 I.U. lithium heparin-coated tubes (Vacutainer, BD Bioscience, UK). Blood was centrifuged immediately at 2,000 g for 15 minutes (4° C.) and supernatant was collected and diluted to 50% (v/v) with PBS. Livers and brains were obtained from adult male Wistar rats, and the tissues were blotted to dryness, weighed, sliced into pieces, and homogenised with ice-cold PBS (in 2 mL of buffer g^−1 of tissue) using the glass homogeniser. Then, tissue homogenates were centrifuged at 4,300 g for 1 hour (4° C.) and the supernatants collected. Glioblastoma cell homogenates were prepared using U-87 MG cells. Cells were cultured in Eagle's Minimum Essential Medium (EMEM) supplemented with 10% (v/v) heat-inactivated fetal bovine serum (FBS), 1% (v/v) of non-essential amino acids (NEAA) and 1 mM of sodium pyruvate in T75 flasks with a surface area of 75 cm^2 and maintained in a humidified atmosphere of 5% CO2 at 37° C. Breast cancer cell homogenates were prepared using MDA-MB-231 cells. Cells were cultured in Dulbecco's Modified Eagle Medium (DMEM) supplemented with high levels of glucose (4.5 g/L), 10% (v/v) heat-inactivated fetal bovine serum (FBS), 1% (v/v) of non-essential amino acids (NEAA) and penicillin and streptomycin (500 units/mL) in T75 flasks with a surface area of 75 cm^2 and maintained in a humidified atmosphere of 5% CO2 at 37° C. Media was changed for both cell lines every 3 to 4 days. After reaching confluence, cells were washed twice with Hank's Balanced Salt Solution (HBSS) and incubated with ˜2 mL of TrypLE Enzyme at 37° C. for ˜3 minutes. Then, complete media were added, and cells were centrifuged at 1,000 rpm for 5 minutes in C-28A centrifuge (Boeco, Germany). […] Total protein concentration in the homogenates was determined using the Bradford assay with bovine serum albumin as a standard. […] Samples were vortexed for 15 minutes, centrifuged for 15 minutes at 12,000 rpm, and the supernatants were collected and analysed by RP-HPLC.

[4] = Isoelectric point by acid-base titration; assay type: physicochemical
Method: Both peptides were characterised by electrospray ionisation (positive/negative) mass spectrometry (MS), nuclear magnetic resonance (NMR), RP-HPLC, attenuated total reflectance Fourier-transformed infrared (ATR-FTIR) spectroscopy, thermogravimetric analysis (TGA) and differential scanning calorimetry (DSC). The isoelectric point of the peptides was also determined using an acid-base titration.

[5] = Critical aggregation concentration, thioflavin T assay; assay type: physicochemical; settings: PBS pH 7.4
Method: Critical aggregation concentration (CAC) of TPGnRH was determined using pyrene ^1-4 and thioflavin T ^5, 6. The peptide solutions (3.5-700 μM) were prepared in phosphate-buffered saline (PBS, 0.01 M, pH 7.4) either by a dilution of a stock solution at 700 μM or solutions prepared at the required concentration. In the pyrene assay, pyrene was dissolved in methanol at 250 μM, dispersed into a black 96-well plate, and methanol was evaporated overnight. TPGnRH solutions were added to pyrene and incubated at 37° C. for 24 hours under stirring. Fluorescence spectra was recorded λex at 334 nm. For the thioflavin T assay, peptide solutions were added to freshly prepared thioflavin Tat 50 μM. All peptide samples were incubated during 5 minutes at room temperature and fluorescence was measured at λex at 450 nm and λem at 482 nm.
PAX:TPGnRH formulation at a molar ratio 1:7.36 was diluted in PBS (0.01 M, pH 7.4) from 22,000 to 7 μM of TPGnRH. Diluted formulations (20 μL) were added to 80 μL of Thioflavin T at 50 μM, incubated for 5 minutes at room temperature, and fluorescence was measured at λex 450 and λem 482 in a black 96-well plate using the Synergy H1 Microplate Reader (BioteK, Vermont, USA).

GnRH-R = target: T2, GnRH-R (Homo sapiens, UniProt P30968); assay: Forskolin-induced intracellular cAMP ELISA; assay type: cell-based; settings: forskolin 5 μM, 15 minutes
T2 construct: The intracellular cAMP was quantified using the Direct cAMP ELISA kit; endogenous in cells
T2 sequence (P30968 1-328): T1 sequence (P30968 1-328)

CCCCCCCCCCCCCCCC(=O)Oc1ccc(C[C@H](NC(=O)[C@H](CO)NC(=O)[C@H](Cc2c[nH]c3ccccc23)NC(=O)[C@H](Cc2c[nH]cn2)NC(=O)[C@@H](N)CCC(=O)O)C(=O)NCC(=O)N[C@@H](CC(C)C)C(=O)N[C@@H](CCCNC(=N)N)C(=O)N2CCC[C@H]2C(=O)NCC(N)=O)cc1 [TPGnRH, Tyrosine (O-Palmitoyl)-Glu-GnRH]
Binding Force ([1]; SEBTA-023): 41.4 ± 3.85 pN
Binding Probability ([1]; SEBTA-023): 17.04±3.1%
koff ([1]; SEBTA-023): 2.49 ± 0.12 s⁻¹
Binding Force ([1]; U-87 MG): 30.00 ± 5.57 pN
Binding Probability ([1]; U-87 MG): 13.2±0.9% and 13.2 ± 1.64%
koff ([1]; U-87 MG): 0.89 ± 0.1 s⁻¹
Binding Force ([1]; UP-007): 50.80 ± 2.88 pN
Binding Probability ([1]; UP-007): 20.5±5.8%
koff ([1]; UP-007): 1.23 ± 0.13 s⁻¹
Binding Force ([1]; UP-029): 46.4 ± 9.45 pN
Binding Probability ([1]; UP-029): 9.5±2.5% and 9.51 ± 2.53%
koff ([1]; UP-029): 2.03 ± 4.14 s⁻¹
k ([2]; analyte in brackets of label): 0.0937 min⁻¹
remaining at 8 h, 4.03 mM ([2]; male, Wistar, rat): > 80%
k [3]: 0.1781 min⁻¹
Isoelectric point [4]: 6.28±0.51
minimal CAC (self-assembly into long-axial nanofibers) [5]: 135 µM
effect on forskolin-induced cAMP intracellular accumulation (GnRH-R): counteracted the forskolin-induced cAMP intracellular accumulation
